In patent US9809623B2, “α4β7 peptide monomer and dimer antagonists” (Protagonist Therapeutics, Inc., priority 2014, dated 2017):
Read-outs that look alike come from different tables or passages of the source. Numbered stars: 1 amine (or outer) side, 2 acyl side, 3 side chain; on linkers, the order of the positions; unused ones are H or OH. Bridge positions count the residues as written; N and C are the ends. Square brackets hold non-standard residues; d marks the D form. Peptide text beside a SMILES is read from it. I, II: the chains in the order shown. X3 = O=C(COCC(=O)NCCC(=O)[*:2])NCCC(=O)[*:1]; Bip = N[C@@H](Cc1ccc(-c2ccccc2)cc1)C(=O)O; 1Nal = N[C@@H](Cc1cccc2ccccc12)C(=O)O; 2Nal = N[C@@H](Cc1ccc2ccccc2c1)C(=O)O; Diglycolyl = O=C(COCC(=O)[*:2])[*:1]; NMeR = CN[C@@H](CCCNC(=N)N)C(=O)O; β3hE = N[C@@H](CCC(=O)O)CC(=O)O; NMeK = CN[C@@H](CCCCN)C(=O)O; Pen = CC(C)(S)[C@H](N)C(=O)O; dNMeK = CN[C@H](CCCCN)C(=O)O

What was measured:
rh integrin α4β7 = target: T1, rh integrin α4β7 (Homo sapiens, UniProt P13612+P26010); test: α4β7-MAdCAM Competition ELISA; assay type: binding; settings: Table 3-B, Potency (α4β7); range classes; read-out: α4β7 ELISA IC50
T1 construct: purchased R&D Systems 5397-A30
T1 sequence (P13612 34-977 limits assumed): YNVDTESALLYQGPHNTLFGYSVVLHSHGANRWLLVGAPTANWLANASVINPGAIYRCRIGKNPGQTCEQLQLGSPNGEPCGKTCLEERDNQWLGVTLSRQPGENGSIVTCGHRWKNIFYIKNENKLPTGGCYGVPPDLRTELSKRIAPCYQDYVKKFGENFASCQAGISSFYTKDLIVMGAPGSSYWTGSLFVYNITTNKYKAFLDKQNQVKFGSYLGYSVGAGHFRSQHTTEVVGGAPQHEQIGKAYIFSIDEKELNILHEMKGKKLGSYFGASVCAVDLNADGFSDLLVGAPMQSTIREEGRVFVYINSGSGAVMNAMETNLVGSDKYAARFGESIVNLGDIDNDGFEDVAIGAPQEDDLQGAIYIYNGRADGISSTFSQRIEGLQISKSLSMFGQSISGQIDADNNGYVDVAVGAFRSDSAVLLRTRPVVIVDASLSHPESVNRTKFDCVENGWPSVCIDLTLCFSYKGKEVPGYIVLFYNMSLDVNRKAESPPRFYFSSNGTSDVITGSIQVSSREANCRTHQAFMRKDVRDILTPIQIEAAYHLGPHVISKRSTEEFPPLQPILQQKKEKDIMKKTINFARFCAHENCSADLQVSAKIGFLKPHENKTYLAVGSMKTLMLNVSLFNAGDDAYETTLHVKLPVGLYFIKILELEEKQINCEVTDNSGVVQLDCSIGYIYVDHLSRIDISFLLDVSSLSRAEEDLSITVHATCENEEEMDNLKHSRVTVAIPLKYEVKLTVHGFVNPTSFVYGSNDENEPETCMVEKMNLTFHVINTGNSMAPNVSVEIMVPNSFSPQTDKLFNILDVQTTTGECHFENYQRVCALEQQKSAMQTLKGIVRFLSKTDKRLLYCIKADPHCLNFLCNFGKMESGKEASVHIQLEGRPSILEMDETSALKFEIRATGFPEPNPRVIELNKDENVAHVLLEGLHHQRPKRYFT
T1 sequence (P26010 20-723 limits assumed): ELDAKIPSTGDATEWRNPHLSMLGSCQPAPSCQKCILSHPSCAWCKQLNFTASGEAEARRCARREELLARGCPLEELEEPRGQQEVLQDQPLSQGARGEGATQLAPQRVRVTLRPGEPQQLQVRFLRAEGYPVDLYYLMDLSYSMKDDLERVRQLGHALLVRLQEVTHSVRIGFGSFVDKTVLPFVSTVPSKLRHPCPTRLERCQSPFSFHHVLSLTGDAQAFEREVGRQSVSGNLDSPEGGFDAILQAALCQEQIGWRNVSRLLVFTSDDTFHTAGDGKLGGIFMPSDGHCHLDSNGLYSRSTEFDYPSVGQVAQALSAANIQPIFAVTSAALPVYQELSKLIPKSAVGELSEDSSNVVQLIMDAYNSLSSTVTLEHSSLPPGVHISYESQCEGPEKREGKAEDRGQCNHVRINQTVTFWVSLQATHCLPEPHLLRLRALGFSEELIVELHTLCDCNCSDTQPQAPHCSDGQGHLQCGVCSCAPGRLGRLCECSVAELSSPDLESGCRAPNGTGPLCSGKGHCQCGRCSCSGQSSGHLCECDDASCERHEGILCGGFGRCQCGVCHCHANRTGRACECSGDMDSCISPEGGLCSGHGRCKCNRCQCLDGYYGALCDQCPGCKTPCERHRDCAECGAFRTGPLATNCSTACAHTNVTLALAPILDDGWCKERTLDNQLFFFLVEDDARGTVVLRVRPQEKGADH
In short: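 Competition read-out was A450 after anti-human IgG1-HRP and TMB detection of bound recombinant human MAdCAM-1 (10 nM final). Peptides were serially diluted 3-fold from a final 10 μM and equilibrated 1 h at room temperature on nickel-captured α4β7 (800 ng/well). The buffer was Tris pH 7.6 with 1 mM Mn2+ or Mg2+.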

α4β1 = target: T2, α4β1 (Homo sapiens, UniProt P05556+P13612, DEL729-798); test: α4β1-VCAM Competition ELISA; assay type: binding; settings: Table 3-B, Selectivity (α4β1); range classes; read-out: α4β1 ELISA IC50
T2 construct: purchased R&D Systems 5668-A4
T2 sequence (P13612 34-977 limits assumed, stated change not applied): as the sequence (P13612 34-977 limits assumed) above
T2 sequence (P05556 21-728 limits assumed, stated change not applied): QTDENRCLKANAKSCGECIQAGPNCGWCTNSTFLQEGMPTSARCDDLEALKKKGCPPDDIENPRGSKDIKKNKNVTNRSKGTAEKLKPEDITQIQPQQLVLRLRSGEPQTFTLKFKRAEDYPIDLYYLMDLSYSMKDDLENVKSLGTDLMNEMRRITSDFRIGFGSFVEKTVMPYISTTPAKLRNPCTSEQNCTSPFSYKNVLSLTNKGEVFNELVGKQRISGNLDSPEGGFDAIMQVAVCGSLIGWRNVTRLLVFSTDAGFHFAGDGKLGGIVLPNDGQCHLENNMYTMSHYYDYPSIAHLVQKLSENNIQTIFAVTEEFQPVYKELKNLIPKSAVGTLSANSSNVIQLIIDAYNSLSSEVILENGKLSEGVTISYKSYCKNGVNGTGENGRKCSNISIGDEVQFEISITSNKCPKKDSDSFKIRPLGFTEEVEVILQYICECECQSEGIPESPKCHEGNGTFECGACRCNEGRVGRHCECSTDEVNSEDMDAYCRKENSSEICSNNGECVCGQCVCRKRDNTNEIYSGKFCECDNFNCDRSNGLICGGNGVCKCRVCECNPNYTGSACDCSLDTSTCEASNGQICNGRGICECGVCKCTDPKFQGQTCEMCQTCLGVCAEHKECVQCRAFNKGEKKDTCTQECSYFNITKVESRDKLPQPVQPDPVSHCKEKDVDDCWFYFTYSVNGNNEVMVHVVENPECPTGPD
Procedure: A Nunc MaxiSorp plate was coated with rh VCAM-1/CD106 Fc chimera (R&D #862-VC) at 400 ng/well in 50 ul per well in 1×PBS and incubated overnight at 4° C. The solution was removed by shaking and then blocked with 250 ul of 1% BSA in 1×PBS per well. The wells were then incubated at room temperature for 1 hr with shaking. Each well was then washed once with wash buffer (50 mM Tris-HCl pH7.6, 100 mM NaCL, 1 mM MnCl2 or MgCl2, 0.05% Tween-20). 25 ul of serial dilutions of peptides starting at 200 μM in assay buffer (Assay buffer: 50 mM Tris-HCl pH7.6, 100 mM NaCl, 1 mM MnCl2 or MgCl2, 0.05% Tween-20) was added to each well. Additionally, 25 ul of α4β1 (R&D Systems #5668-A4) was added to each well at a fixed concentration of 120 nM. The final peptide and α4β1 concentrations were 100 μM and 60 nM, respectively. The plates were then incubated at 37° C. for 2 hr. The solution was then removed by shaking, and each well was washed three times with wash buffer. 50 ul of 9F10 antibody at 4 ug/ml (purified mouse anti-human CD49d, BD Bioscience Cat#555502) was then added to each well, and the plate was incubated at room temperature for 1 hr with shaking. The solution was again removed by shaking, and each well was washed three times with wash buffer. 50 ul of peroxidase-conjugated AffiniPure Goat anti-mouse IgG (Jackson immune research cat #115-035-003) diluted in 1:5000 in assay buffer was added to each well. The plate was incubated at room temperature for 30 min with shaking. Each well was then washed 3 times with wash buffer. 100 ul of TMB was then added to each well and closely observe during developing time. The reaction was stepped with 2N H2SO4 and absorbance was read at 450 nm.

α4β7 = α4β7 (Homo sapiens, UniProt P13612+P26010); test: α4β7-MAdCAM Cell Adhesion Assay (RPMI 8866 human cells); assay type: cell-based; parameters: host or cells: RPMI 8866 human B lymphoblastoid cells; settings: Table 3-B, Potency (α4β7); range classes; read-out: α4β7 cell (Hu) IC50
Chain of α4β7 (P13612 34-1032): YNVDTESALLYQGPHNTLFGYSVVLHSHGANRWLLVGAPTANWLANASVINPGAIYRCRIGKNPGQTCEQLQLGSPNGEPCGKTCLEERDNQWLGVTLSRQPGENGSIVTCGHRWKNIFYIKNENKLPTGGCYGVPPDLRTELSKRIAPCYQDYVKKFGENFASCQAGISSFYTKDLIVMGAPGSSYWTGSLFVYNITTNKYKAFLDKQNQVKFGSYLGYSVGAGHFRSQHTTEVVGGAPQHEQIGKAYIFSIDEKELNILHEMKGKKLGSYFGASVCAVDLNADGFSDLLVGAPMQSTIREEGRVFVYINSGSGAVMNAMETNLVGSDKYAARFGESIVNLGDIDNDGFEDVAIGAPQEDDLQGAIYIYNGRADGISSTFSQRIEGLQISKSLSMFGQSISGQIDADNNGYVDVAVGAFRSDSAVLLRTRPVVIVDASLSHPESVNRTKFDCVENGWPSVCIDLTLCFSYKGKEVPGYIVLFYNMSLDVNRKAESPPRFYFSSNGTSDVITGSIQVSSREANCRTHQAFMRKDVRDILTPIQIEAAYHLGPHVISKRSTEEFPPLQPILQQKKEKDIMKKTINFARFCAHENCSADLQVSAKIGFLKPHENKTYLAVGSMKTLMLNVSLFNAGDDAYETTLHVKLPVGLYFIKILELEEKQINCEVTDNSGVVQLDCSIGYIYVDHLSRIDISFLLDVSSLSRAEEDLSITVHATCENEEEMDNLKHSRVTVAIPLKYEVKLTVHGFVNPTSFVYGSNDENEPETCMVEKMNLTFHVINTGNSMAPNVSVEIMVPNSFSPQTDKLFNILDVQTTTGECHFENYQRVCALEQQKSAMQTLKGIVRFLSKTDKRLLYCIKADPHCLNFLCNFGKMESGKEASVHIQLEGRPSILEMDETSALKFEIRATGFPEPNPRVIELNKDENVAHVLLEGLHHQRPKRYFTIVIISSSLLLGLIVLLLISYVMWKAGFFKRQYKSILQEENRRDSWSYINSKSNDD
Chain of α4β7 (P26010 20-798): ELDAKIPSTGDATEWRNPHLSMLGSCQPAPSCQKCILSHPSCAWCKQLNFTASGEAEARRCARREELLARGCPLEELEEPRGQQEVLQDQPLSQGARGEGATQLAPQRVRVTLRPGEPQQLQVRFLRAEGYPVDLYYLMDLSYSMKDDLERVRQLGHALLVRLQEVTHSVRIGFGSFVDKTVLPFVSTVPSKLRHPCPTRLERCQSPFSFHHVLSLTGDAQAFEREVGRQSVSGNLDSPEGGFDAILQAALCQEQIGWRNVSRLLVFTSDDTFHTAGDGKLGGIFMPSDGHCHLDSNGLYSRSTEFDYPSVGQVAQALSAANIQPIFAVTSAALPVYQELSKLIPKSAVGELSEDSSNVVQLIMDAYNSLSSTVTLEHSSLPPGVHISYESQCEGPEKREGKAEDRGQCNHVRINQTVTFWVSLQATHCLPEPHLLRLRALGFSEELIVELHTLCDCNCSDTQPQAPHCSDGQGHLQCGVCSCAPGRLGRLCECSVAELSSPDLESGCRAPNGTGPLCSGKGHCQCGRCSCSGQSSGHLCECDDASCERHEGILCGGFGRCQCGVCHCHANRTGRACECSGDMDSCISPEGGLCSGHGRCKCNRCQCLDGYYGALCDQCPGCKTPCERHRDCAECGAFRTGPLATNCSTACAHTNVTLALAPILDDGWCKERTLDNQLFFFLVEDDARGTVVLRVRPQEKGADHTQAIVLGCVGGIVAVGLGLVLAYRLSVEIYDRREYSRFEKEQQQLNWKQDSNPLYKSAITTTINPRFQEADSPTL
In short: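 Adhesion read-out: MTT absorbance at 570 nm minus no-cell wells, after three washes. Plates coated with rh MAdCAM-1/Fc received peptide dilutions plus 200,000 RPMI 8866 cells in Mn2+ (1 mM)-supplemented DMEM, 0.1% BSA, HEPES pH 7, incubated 30-45 min, 37 °C.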

[1] = Simulated Intestinal Fluid (SIF) Stability Assay; assay type: in vitro ADME, porcine; settings: pig, pH 6.5, Table 3-B, > means experiment was stopped at that time and half life was not reached, read-out: Stabilty SIF t1/2
In short: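 Intestinal stability: percent peptide remaining over time, by LC-MS/MS peak-area ratio to internal standard, fitted to first-order decay for half-life. Conditions: 22 μM peptide, 1% pancreatin in pH 6.5 blank FASSIF, 37 °C.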

[2] = simulated intestinal fluid (SIF) with 1% porcine pancreatin

For `CC(=O)N[C@@H]1C(=O)N(C)[C@@H](CCCNC(=N)N)C(=O)N[C@@H](CO)C(=O)N[C@@H](CC(=O)O)C(=O)N[C@@H]([C@@H](C)O)C(=O)N[C@@H](CC(C)C)C(=O)N[C@H](C(=O)N[C@@H](Cc2cccc3ccccc23)C(=O)N[C@@H](CCC(=O)O)C(=O)N(C)[C@H](CCCCN)C(N)=O)C(C)(C)SSC1(C)C` [compound 18] (Ac-[Pen][NMeR]SDTL[Pen][1Nal]E[dNMeK]-NH2; disulfide 1-7), the IC50 (rh integrin α4β7) was 10 to 25 nM and the IC50 (α4β1) was 500 to 1000 nM.

For `CC(=O)N[C@@H]1C(=O)N(C)[C@@H](CCCNC(=N)N)C(=O)N[C@@H](CO)C(=O)N[C@@H](CC(=O)O)C(=O)N[C@@H]([C@@H](C)O)C(=O)N[C@@H](CC(C)C)C(=O)N[C@H](C(=O)N[C@@H](Cc2ccc(O)cc2)C(=O)N[C@@H](CCC(=O)O)C(=O)N[C@H](CCCCNC(=O)COCC(=O)NCCCC[C@@H](NC(=O)[C@H](CCC(=O)O)NC(=O)[C@H](Cc2ccc(O)cc2)NC(=O)[C@H]2NC(=O)[C@H](CC(C)C)NC(=O)[C@H]([C@@H](C)O)NC(=O)[C@H](CC(=O)O)NC(=O)[C@H](CO)NC(=O)[C@H](CCCNC(=N)N)N(C)C(=O)[C@@H](NC(C)=O)C(C)(C)SSC2(C)C)C(N)=O)C(N)=O)C(C)(C)SSC1(C)C` [compound 22] (I: Ac-[Pen][NMeR]SDTL[Pen]YE[dK]-NH2 / II: Ac-[Pen][NMeR]SDTL[Pen]YE[dK]-NH2; disulfide I:1-I:7, II:1-II:7; linker I:10-II:10 via Diglycolyl), the IC50 (α4β7) was < 10 nM, the half-life at 22 μM [1, 2] was < 20 min and the IC50 (rh integrin α4β7) was < 10 nM. The IC50 (α4β1) was 100 to 500 nM.

In the case of `CC(=O)N[C@@H]1C(=O)N(C)[C@@H](CCCNC(=N)N)C(=O)N[C@@H](CO)C(=O)N[C@@H](CC(=O)O)C(=O)N[C@@H]([C@@H](C)O)C(=O)N[C@@H](CC(C)C)C(=O)N[C@H](C(=O)N[C@@H](Cc2cccc3ccccc23)C(=O)N[C@@H](CCC(=O)O)C(=O)N[C@H](CCCCNC(=O)COCC(=O)NCCCC[C@@H](NC(=O)[C@H](CCC(=O)O)NC(=O)[C@H](Cc2cccc3ccccc23)NC(=O)[C@H]2NC(=O)[C@H](CC(C)C)NC(=O)[C@H]([C@@H](C)O)NC(=O)[C@H](CC(=O)O)NC(=O)[C@H](CO)NC(=O)[C@H](CCCNC(=N)N)N(C)C(=O)[C@@H](NC(C)=O)C(C)(C)SSC2(C)C)C(N)=O)C(N)=O)C(C)(C)SSC1(C)C` [compound 24] (I: Ac-[Pen][NMeR]SDTL[Pen][1Nal]E[dK]-NH2 / II: Ac-[Pen][NMeR]SDTL[Pen][1Nal]E[dK]-NH2; disulfide I:1-I:7, II:1-II:7; linker I:10-II:10 via Diglycolyl), the IC50 (α4β7) is reported as < 10 nM, the half-life at 22 μM [1, 2] is reported as 56 min and the IC50 (rh integrin α4β7) is reported as < 10 nM. It also gave an IC50 (α4β1) of 100 to 500 nM.

Compound `CC(C)C[C@@H]1NC(=O)[C@H]([C@@H](C)O)NC(=O)[C@H](CC(=O)O)NC(=O)[C@H](CO)NC(=O)[C@H](CCCNC(=N)N)N(C)C(=O)[C@@H](NC(=O)CCNC(=O)COCC(=O)NCCC(=O)N[C@@H]2C(=O)N(C)[C@@H](CCCNC(=N)N)C(=O)N[C@@H](CO)C(=O)N[C@@H](CC(=O)O)C(=O)N[C@@H]([C@@H](C)O)C(=O)N[C@@H](CC(C)C)C(=O)N[C@H](C(=O)N[C@@H](Cc3c[nH]c4ccccc34)C(=O)N[C@@H](CCC(=O)O)C(N)=O)C(C)(C)SSC2(C)C)C(C)(C)SSC(C)(C)[C@@H](C(=O)N[C@@H](Cc2c[nH]c3ccccc23)C(=O)N[C@@H](CCC(=O)O)C(N)=O)NC1=O` [compound 54] (I: [Pen][NMeR]SDTL[Pen]WE-NH2 / II: [Pen][NMeR]SDTL[Pen]WE-NH2; disulfide I:1-I:7, II:1-II:7; linker I:N-II:N via X3) has an IC50 (α4β7) of 25 to 50 nM, a half-life at 22 μM ([1]; simulated intestinal fluid (SIF) with porcine pancreatin) of 32 min and an IC50 (α4β1) of 100 to 500 nM.

For `CC(=O)N[C@@H]1C(=O)N(C)[C@@H](CCCNC(=N)N)C(=O)N[C@@H](CO)C(=O)N[C@@H](CC(=O)O)C(=O)N[C@@H]([C@@H](C)O)C(=O)N[C@@H](CC(C)C)C(=O)N[C@H](C(=O)N[C@@H](Cc2ccc(-c3ccccc3)cc2)C(=O)N[C@@H](CCC(=O)O)C(=O)N[C@H](CCCCNC(=O)COCC(=O)NCCCC[C@@H](NC(=O)[C@H](CCC(=O)O)NC(=O)[C@H](Cc2ccc(-c3ccccc3)cc2)NC(=O)[C@H]2NC(=O)[C@H](CC(C)C)NC(=O)[C@H]([C@@H](C)O)NC(=O)[C@H](CC(=O)O)NC(=O)[C@H](CO)NC(=O)[C@H](CCCNC(=N)N)N(C)C(=O)[C@@H](NC(C)=O)C(C)(C)SSC2(C)C)C(N)=O)C(N)=O)C(C)(C)SSC1(C)C` [compound 134] (I: Ac-[Pen][NMeR]SDTL[Pen][Bip]E[dK]-NH2 / II: Ac-[Pen][NMeR]SDTL[Pen][Bip]E[dK]-NH2; disulfide I:1-I:7, II:1-II:7; linker I:10-II:10 via Diglycolyl), the IC50 (α4β7) was < 10 nM, the IC50 (rh integrin α4β7) was < 10 nM and the IC50 (α4β1) was 100 to 500 nM.

For `CC(=O)N[C@@H]1C(=O)N(C)[C@@H](CCCNC(=N)N)C(=O)N[C@@H](CO)C(=O)N[C@@H](CC(=O)O)C(=O)N[C@@H]([C@@H](C)O)C(=O)N[C@@H](CC(C)C)C(=O)N[C@H](C(=O)N[C@@H](Cc2ccc3ccccc3c2)C(=O)N[C@@H](CCC(=O)O)CC(=O)N[C@H](CCCCNC(=O)COCC(=O)NCCCC[C@@H](NC(=O)C[C@H](CCC(=O)O)NC(=O)[C@H](Cc2ccc3ccccc3c2)NC(=O)[C@H]2NC(=O)[C@H](CC(C)C)NC(=O)[C@H]([C@@H](C)O)NC(=O)[C@H](CC(=O)O)NC(=O)[C@H](CO)NC(=O)[C@H](CCCNC(=N)N)N(C)C(=O)[C@@H](NC(C)=O)C(C)(C)SSC2(C)C)C(N)=O)C(N)=O)C(C)(C)SSC1(C)C` [compound 137] (I: Ac-[Pen][NMeR]SDTL[Pen][2Nal][β3hE][dK]-NH2 / II: Ac-[Pen][NMeR]SDTL[Pen][2Nal][β3hE][dK]-NH2; disulfide I:1-I:7, II:1-II:7; linker I:10-II:10 via Diglycolyl), the IC50 (α4β7) was < 10 nM, the IC50 (rh integrin α4β7) was < 10 nM and the IC50 (α4β1) was 1000 to 10000 nM.

With `CC(=O)N[C@@H]1C(=O)N(C)[C@@H](CCCNC(=N)N)C(=O)N[C@@H](CO)C(=O)N[C@@H](CC(=O)O)C(=O)N[C@@H]([C@@H](C)O)C(=O)N[C@@H](CC(C)C)C(=O)N[C@H](C(=O)N[C@@H](Cc2c[nH]c3ccccc23)C(=O)N[C@@H](CCC(=O)O)CC(=O)N(C)[C@@H](CCCCNC(=O)COCC(=O)NCCCC[C@@H](C(N)=O)N(C)C(=O)C[C@H](CCC(=O)O)NC(=O)[C@H](Cc2c[nH]c3ccccc23)NC(=O)[C@H]2NC(=O)[C@H](CC(C)C)NC(=O)[C@H]([C@@H](C)O)NC(=O)[C@H](CC(=O)O)NC(=O)[C@H](CO)NC(=O)[C@H](CCCNC(=N)N)N(C)C(=O)[C@@H](NC(C)=O)C(C)(C)SSC2(C)C)C(N)=O)C(C)(C)SSC1(C)C` [compound 141] (I: Ac-[Pen][NMeR]SDTL[Pen]W[β3hE][NMeK]-NH2 / II: Ac-[Pen][NMeR]SDTL[Pen]W[β3hE][NMeK]-NH2; disulfide I:1-I:7, II:1-II:7; linker I:10-II:10 via Diglycolyl) the IC50 (α4β7) was < 10 nM, the IC50 (rh integrin α4β7) was < 10 nM and the IC50 (α4β1) was 500 to 1000 nM.
